According to PubChem BioAssay (NCI):
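1) Cells in 96-well plates. 2) Compound, 48 h, 5 concentrations. 3) Linear interpolation between surrounding doses. 4) Unreached endpoint = highest concentration. Definition used: TGI = concentration required for complete inhibition of growth.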

How the values were obtained:
Assay in all cases: NCI-60 cell line screen, 48 h
[1] = system: DU-145 prostate
[2] = system: OVCAR-8 ovarian
[3] = system: A498 renal
[4] = system: NCI-H522 lung
[5] = system: BT-549 breast
[6] = system: XF 498 CNS
[7] = system: SNB-78 CNS
[8] = system: KM20L2 colon
[9] = system: M19-MEL melanoma
[10] = system: DMS 273 small cell lung
[11] = system: DMS 114 small cell lung
[12] = system: DLD-1 colon
[13] = system: LXFL 529 NSCLC

SMILES | TGI [1] [µM] | TGI [2] [µM] | TGI [3] [µM] | TGI [4] [µM] | TGI [5] [µM] | TGI [6] [µM] | TGI [7] [µM] | TGI [8] [µM] | TGI [9] [µM] | TGI [10] [µM] | TGI [11] [µM] | TGI [12] [µM] | TGI [13] [µM]
C=CC(Br)(CBr)CCC(Br)C(C)C (stereo not given) | 22.8 | 8.58 | 32.8 | 3.46 | 11.5 | – | – | – | – | – | – | – | –
CC(=O)N(CN1C(=O)CCC1C(=O)O)c1ccccc1Cl (stereo not given) | > 100 | > 100 | > 100 | > 100 | – | – | – | – | – | – | – | – | –
CN1C(=O)N(C)C2(CCN(CCCCCCF)CC2)C1=O | > 100 | > 100 | – | > 100 | > 100 | – | – | – | – | – | – | – | –
O=C1c2cc([N+](=O)[O-])sc2C(=O)c2ccsc21 | 0.674 | 2.01 | 4.37 | 0.379 | 1.27 | – | – | – | – | – | – | – | –
Cc1sc2nc3n(c(=O)c2c1C)N=C(c1ccc([N+](=O)[O-])cc1)CS3 | > 100 | > 100 | > 100 | > 100 | > 100 | – | – | – | – | – | – | – | –
CCN(CC)CCNc1ccc2ncn3c4cc(=O)ccc4c(O)c1c23 | – | 7.77 | 14 | 5.36 | – | 12.8 | 25.4 | 16.4 | 16.5 | 13.2 | 18.1 | 17 | 20.5
COCCNC1CCC2(SCCS2)c2[nH]c3ccccc3c21 (stereo not given) | > 100 | > 100 | 86.1 | > 100 | 38 | – | – | – | – | – | – | – | –
O=C(O)CC(O)(C(=O)O)C(O)C(=O)O (stereo not given) | > 1000 | > 1000 | – | > 1000 | > 1000 | – | – | – | – | – | – | – | –
O=C1N[C@@H](COc2ccc(C=Nc3ccc(CCc4ccc(N=Cc5ccc(OC[C@@H]6COC(=O)N6)cc5)cc4)cc3)cc2)CO1 | > 100 | > 100 | > 100 | > 100 | – | – | – | – | – | – | – | – | –
CCCCNC(=S)Nc1nc(C(=O)NNC(=O)c2ccccc2)cs1 | 53.4 | 66.9 | 79.3 | 43.7 | 41.4 | – | – | – | – | – | – | – | –
CC(=O)OCC1OC(N2C(S)=C(C#N)C(c3ccco3)C(C(C)=O)=C2c2ccccc2)C(OC(C)=O)C(OC(C)=O)C1OC(C)=O (stereo not given) | > 100 | > 100 | > 100 | > 100 | > 100 | – | – | – | – | – | – | – | –
CC1CC[C@@]2(OC1)OC1C[C@H]3[C@@H]4CCC5CC(O)CC[C@]5(C)[C@H]4C/C(=N\N(C)C)[C@]3(C)C1[C@@H]2C (stereo not given in full) | 60.1 | – | 48.6 | – | 83.5 | – | – | – | – | – | – | – | –
Cc1cccc(NC2=NCCO2)c1Cl | > 100 | > 100 | > 100 | – | – | – | – | – | – | – | – | – | –
C#CCCCC(=O)N(C(=O)CS(=O)CC)c1ccccc1 (stereo not given) | > 100 | > 100 | – | > 100 | > 100 | – | – | – | – | – | – | – | –
O=C(Oc1cccc(Cl)c1)c1cc2cc(CCl)ccc2oc1=O | 62.9 | > 100 | – | 49.5 | > 100 | – | – | – | – | – | – | – | –
Brc1cccc[n+]1-c1ccc2cc(-[n+]3ccccc3Br)ccc2c1 | 35.5 | > 100 | > 100 | > 100 | > 100 | – | – | – | – | – | – | – | –
c1ccc(CCn2cncn2)cc1 | – | – | – | > 100 | – | – | > 100 | > 100 | > 100 | > 100 | > 100 | > 100 | > 100

SMILES | TGI [1] [µM] | TGI [2] [µM] | TGI [3] [µM] | TGI [4] [µM] | TGI [5] [µM] | TGI [6] [µM] | TGI [7] [µM] | TGI [8] [µM] | TGI [9] [µM] | TGI [10] [µM] | TGI [11] [µM] | TGI [12] [µM] | TGI [13] [µM]
C=CCC(CNC(=O)OCc1ccccc1)OC(=O)OCc1ccccc1 (stereo not given) | > 100 | > 100 | > 100 | > 100 | > 100 | – | – | – | – | – | – | – | –
CC1CN=C(c2ccc(COc3ccc(C4=NCC(C)N4)cc3)cc2)N1 (stereo not given) | > 100 | > 100 | > 100 | > 100 | > 100 | – | – | – | – | – | – | – | –
O=S(=O)(/N=C(\NO)Nc1ccc(Cl)cc1)c1ccc(-c2ccccn2)s1 | > 100 | > 100 | – | 31.8 | > 100 | – | – | – | – | – | – | – | –
COc1ccc(C[C@@H]2OC3(C=CC(=O)C=C3)O[C@H]2Cc2ccc(OC)cc2)cc1 | 5.32 | 0.645 | 14.8 | 0.33 | 0.505 | – | – | – | – | – | – | – | –
COc1ccc(N2C(=O)C3CC4=CC(=O)C[C@H]4[C@H]32)cc1 (stereo not given in full) | > 100 | > 100 | > 100 | – | > 100 | – | – | – | – | – | – | – | –
CC1(C)CC2C(C1=O)C1(C)CCCC2(C)C1=O (stereo not given) | > 100 | > 100 | – | – | – | – | – | – | – | – | – | – | –
Cc1cc(C)c(N=Nc2c(O)c(S(=O)(=O)O)cc3cc(S(=O)(=O)O)ccc23)cc1C | > 100 | > 100 | > 100 | > 100 | > 100 | – | – | – | – | – | – | – | –
CCCCCCCCCCCCCCCCP(=O)([O-])OCC[N+](C)(C)C | 28.3 | 32.7 | 29.1 | 42.6 | 22.6 | – | – | – | – | – | – | – | –
CC(=O)O[C@H]1CC[C@H]2[C@@H]3CCC(C(C)=O)[C@H](C(=O)O)[C@H]3CC[C@]12C (stereo not given in full) | – | > 100 | > 100 | > 100 | > 100 | – | – | – | – | – | – | – | –
COc1cc2c(cc1OCCCCCOc1cc3c(cc1OC)C(=O)N1CCC[C@H]1CN3)N=C[C@@H]1CCCN1C2=O | > 100 | 24.2 | – | 3.65 | 34.9 | – | – | – | – | – | – | – | –
COc1ccccc1N=C1SCCN1C(=S)Nc1ccc(S(=O)(=O)/N=C/N(C)C)cc1 | > 100 | > 100 | > 100 | – | 49.8 | – | – | – | – | – | – | – | –
CSC1=C(C(=O)Nc2ccccc2)C(N)=NC1=O | > 100 | > 100 | > 100 | > 100 | > 100 | – | – | – | – | – | – | – | –
NC(N)=NCC(N)C(=O)O (stereo not given) | > 100 | > 100 | > 100 | > 100 | > 100 | – | – | – | – | – | – | – | –
OCC(O)C(O)C(O)C(O)/C=N/Nc1nc(O)c(/C=C2\C=Nc3ccccc32)[nH]1 (stereo not given) | > 100 | > 100 | > 100 | > 100 | > 100 | – | – | – | – | – | – | – | –
CC1(C)C2CCC(N)(C2)C1O (stereo not given) | > 100 | > 100 | > 100 | – | > 100 | – | – | – | – | – | – | – | –
COc1cccc(-c2cc(=O)c3cc(Cl)cnc3[nH]2)c1 | > 36.4 | 43.9 | > 100 | 3.51 | > 100 | – | – | – | – | – | – | – | –
